Assay results published in patent US20230008368A1, “IMIDAZOQUINOLINE SUBSTITUTED PHOSPHORIC ESTER AGONIST, AND PREPARATION THEREFOR AND APPLICATION THEREOF” (SUZHOU ZELGEN BIOPHARMACEUTICALS CO., LTD., priority 2019, published 2023).
Like-named read-outs stand apart in the source and are kept apart here.

Experiments:
hTLR7 = molecular target: T1, hTLR7 (Homo sapiens, UniProt Q9NYK1); assay: agonistic activity on hTLR7, HEK-Blue hTLR cells, SEAP reporter (QUANTI-Blue); format: cell-based; conditions: for TLR 7 selectivity TLR 8/TLR 7: ratio of TLR 8 EC50 to TLR 7 EC50
T1 construct: expressed in transfected cells; host or cells: HEK-Blue hTLR cells
T1 sequence (Q9NYK1 27-1049): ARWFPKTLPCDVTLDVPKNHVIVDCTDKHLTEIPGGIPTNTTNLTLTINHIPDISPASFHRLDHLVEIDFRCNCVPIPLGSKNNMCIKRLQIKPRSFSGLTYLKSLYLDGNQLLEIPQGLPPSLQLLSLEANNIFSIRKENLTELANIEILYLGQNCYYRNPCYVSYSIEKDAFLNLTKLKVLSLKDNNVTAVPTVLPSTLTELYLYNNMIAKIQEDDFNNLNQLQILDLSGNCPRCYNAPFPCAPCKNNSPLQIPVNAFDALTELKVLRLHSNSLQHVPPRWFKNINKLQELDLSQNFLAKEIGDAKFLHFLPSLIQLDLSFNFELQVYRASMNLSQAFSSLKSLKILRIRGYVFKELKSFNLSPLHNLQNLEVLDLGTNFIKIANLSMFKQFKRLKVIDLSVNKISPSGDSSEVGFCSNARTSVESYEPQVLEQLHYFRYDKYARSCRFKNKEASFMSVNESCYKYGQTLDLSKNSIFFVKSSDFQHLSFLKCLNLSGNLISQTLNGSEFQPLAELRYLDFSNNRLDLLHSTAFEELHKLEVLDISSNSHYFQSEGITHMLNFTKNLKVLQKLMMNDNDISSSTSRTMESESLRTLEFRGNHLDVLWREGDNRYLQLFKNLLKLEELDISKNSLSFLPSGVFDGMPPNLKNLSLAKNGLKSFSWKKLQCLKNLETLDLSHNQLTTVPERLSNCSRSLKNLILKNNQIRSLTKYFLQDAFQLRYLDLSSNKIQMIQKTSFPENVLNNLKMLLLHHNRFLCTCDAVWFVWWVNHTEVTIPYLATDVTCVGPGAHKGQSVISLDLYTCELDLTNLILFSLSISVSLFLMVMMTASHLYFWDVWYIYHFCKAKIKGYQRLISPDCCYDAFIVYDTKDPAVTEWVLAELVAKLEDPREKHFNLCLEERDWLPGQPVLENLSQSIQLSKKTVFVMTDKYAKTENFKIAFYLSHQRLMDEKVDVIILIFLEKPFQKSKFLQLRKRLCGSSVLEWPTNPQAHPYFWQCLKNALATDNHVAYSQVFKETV
Description: (§1) Experiments on the agonistic activity of TLR7 and TLR8 by the compounds in vitro
(§2) The compound was diluted with 1:3 series with DMSO for 9 concentration points, duplicated wells, and added to 96-well plate with Echo.
(§3) The HEK-Blue™ hTLR cells were suspended in the culture medium and then seeded into a 96-well plate containing the compound at a density of 50,000 cells/well. Cells were cultured at 5% CO2 and 37° C. for 1 day. The final concentration of DMSO in the cell culture medium was 0.5%.
(§4) 20 uL cell culture supernatant was taken, according to the QUANTI-Blue instructions, the reporter gene SEAP in the supernatant was detected, and the OD650 signal value was read with a microplate reader to calculate the agonist activity of the compound on the hTLR7 and hTLR8.
(§5) The EC50 and CC50 values of the compound were calculated by GraphPad Prism software, and the fitting curve was plotted.

[1] = cytotoxicity, cell viability by CellTiter-Glo; format: cell-based, human; conditions: human, HEK-Blue hTLR cells, cultured 1 day
Description: as §2, §3
(§6) According to the CellTiter-Glo instructions, the cell viability was measured, and the Luminescence signal value was read by the microplate reader, which was used to calculate the cytotoxicity of the compound.
as §5

hTLR8 = molecular target: T2, hTLR8 (Homo sapiens, UniProt Q9NR97); assay: agonistic activity on hTLR8, HEK-Blue hTLR cells, SEAP reporter (QUANTI-Blue); format: cell-based; conditions: for EC50: SEAP reporter, OD650, cultured 1 day; for TLR 8 selectivity TLR 7/TLR 8: ratio of TLR 7 EC50 to TLR 8 EC50
T2 construct: expressed in transfected cells; host or cells: HEK-Blue hTLR cells
T2 sequence (Q9NR97 27-1041): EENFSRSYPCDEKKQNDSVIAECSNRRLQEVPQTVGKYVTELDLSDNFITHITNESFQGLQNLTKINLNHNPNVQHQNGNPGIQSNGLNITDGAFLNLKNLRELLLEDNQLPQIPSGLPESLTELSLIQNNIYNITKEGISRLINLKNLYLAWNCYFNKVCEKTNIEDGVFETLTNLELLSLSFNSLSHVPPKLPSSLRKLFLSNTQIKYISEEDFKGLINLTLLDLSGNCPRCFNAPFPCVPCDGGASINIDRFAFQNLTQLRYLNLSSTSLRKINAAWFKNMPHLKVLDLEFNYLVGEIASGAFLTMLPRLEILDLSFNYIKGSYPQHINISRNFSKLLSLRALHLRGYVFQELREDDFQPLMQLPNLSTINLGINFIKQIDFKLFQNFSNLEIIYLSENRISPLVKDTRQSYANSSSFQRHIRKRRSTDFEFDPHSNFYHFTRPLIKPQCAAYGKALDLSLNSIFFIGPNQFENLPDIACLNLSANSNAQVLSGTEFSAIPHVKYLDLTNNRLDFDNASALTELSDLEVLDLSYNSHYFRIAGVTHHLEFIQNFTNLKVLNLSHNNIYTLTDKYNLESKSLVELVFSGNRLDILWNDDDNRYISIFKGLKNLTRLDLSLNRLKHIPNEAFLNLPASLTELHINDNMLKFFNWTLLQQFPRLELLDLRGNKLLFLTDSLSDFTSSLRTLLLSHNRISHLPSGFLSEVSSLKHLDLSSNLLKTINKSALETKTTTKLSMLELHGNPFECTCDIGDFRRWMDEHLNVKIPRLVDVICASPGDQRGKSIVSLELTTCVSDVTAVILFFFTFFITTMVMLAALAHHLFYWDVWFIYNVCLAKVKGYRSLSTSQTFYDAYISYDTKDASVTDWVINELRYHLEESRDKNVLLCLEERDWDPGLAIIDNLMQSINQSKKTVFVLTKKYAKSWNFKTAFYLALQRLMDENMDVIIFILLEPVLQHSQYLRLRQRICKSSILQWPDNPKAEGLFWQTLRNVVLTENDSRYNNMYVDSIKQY
Description: as §1, §2, §3, §4, §5

HEK-Blue™ hTLR cells = assay: cytotoxicity, cell viability by CellTiter-Glo; format: cell-based, human; conditions: cultured 1 day
Description: as §2, §3, §6, §5

[2] = HEK-Blue hTLR cells, SEAP reporter, OD650, cultured 1 day, read-out: TLR 7 EC50
[3] = HEK-Blue hTLR cells, read-out: TLR 8 EC50
[4] = TLR 8 EC50, HEK-Blue hTLR cells

Compound | EC50 (hTLR7; [2]) | TLR 7 selectivity TLR 8/TLR 7 (hTLR7) | CC50 at 1 day [1] | EC50 (hTLR8; [3]) | EC50 (hTLR7) | EC50 (hTLR8; [4]) | TLR 8 selectivity TLR 7/TLR 8 (hTLR8) | CC50 (HEK-Blue™ hTLR cells)
CCOCc1nc2c(N)nc3ccccc3c2n1C[C@@H](C)O (single isomer, unassigned) [Example 1B] | 1.27 µM | 2.8 | > 30 µM | 3.6 µM |  |  |  | 
CCOCc1nc2c(N)nc3ccccc3c2n1C[C@@H](C)O[P@@](=O)(N[C@@H](C)C(=O)OC(C)C)Oc1ccccc1 (single isomer, unassigned) [Example 2A] |  |  | > 30 µM |  | 2.8 µM | 0.881 µM | 3.2 | 
CCOCc1nc2c(N)nc3ccccc3c2n1C[C@H](C)O[P@@](=O)(N[C@@H](C)C(=O)OC(C)C)Oc1ccccc1 (single isomer, unassigned) [Example 2B] |  |  | > 30 µM |  | 3.03 µM | 0.077 µM | 39.4 | 
CCOCc1nc2c(N)nc3ccccc3c2n1C[C@@H](C)O[P@](=O)(N[C@@H](C)C(=O)OC(C)C)Oc1ccccc1 (single isomer, unassigned) [Example 3A] | > 30 µM |  | > 30 µM | 9.08 µM |  |  | >3.3 | 
CCOCc1nc2c(N)nc3ccccc3c2n1C[C@H](C)O[P@](=O)(N[C@@H](C)C(=O)OC(C)C)Oc1ccccc1 (single isomer, unassigned) [Example 3B] | 3.61 µM |  | > 30 µM | 1.86 µM |  |  | 1.9 | 
CCOCc1nc2c(N)nc3ccccc3c2n1C[C@@H](C)O[P@@](=O)(N[C@@H](C)C(=O)OC(C)C)Oc1cccc2ccccc12 (single isomer, unassigned) [Example 5A] | > 10 µM |  | 17.9 µM | 0.0092 µM |  |  | >1086 | 
CCOCc1nc2c(N)nc3ccccc3c2n1C[C@@H](C)OP(=O)(N[C@@H](C)C(=O)OC(C)C)Oc1cccc2ccccc12 (single isomer, unassigned) [Example 5B] |  |  |  | 0.017 µM |  |  |  | > 30 µM
CCOCc1nc2c(N)nc3ccccc3c2n1C[C@@H](C)O[P@@](=O)(N[C@@H](C)C(=O)OC(C)C)Oc1ccc2ccccc2c1 (single isomer, unassigned) [Example 6A] | 7.29 µM |  | > 30 µM | 0.0056 µM |  |  | 1301 | 
CCOCc1nc2c(N)nc3ccccc3c2n1C[C@@H](C)O[P@@](=O)(N[C@@H](C)C(=O)OC(C)C)Oc1ccc(C)cc1 (single isomer, unassigned) [Example 9A] | 9.5 µM |  | > 30 µM | 0.0079 µM |  |  | 1202 | 
CCOCc1nc2c(N)nc3ccccc3c2n1C[C@@H](C)O[P@@](=O)(N[C@@H](C)C(=O)OC(C)C)Oc1cccc(Cl)c1 (single isomer, unassigned) [Example 11A] | 5.83 µM |  | > 30 µM | 0.0091 µM |  |  | 640 | 
CCOCc1nc2c(N)nc3ccccc3c2n1C[C@@H](C)O[P@@](=O)(N[C@@H](C)C(=O)OC(C)C)Oc1ccc(Cl)cc1 (single isomer, unassigned) [Example 12A] | 6.07 µM |  | > 30 µM | 0.0035 µM |  |  | 1735 | 
CCOCc1nc2c(N)nc3ccccc3c2n1C[C@@H](C)O[P@@](=O)(N[C@@H](C)C(=O)OC(C)(C)C)Oc1ccccc1 (single isomer, unassigned) [Example 14A] | 15.8 µM |  | > 30 µM | 0.366 µM |  |  | 43 | 
CCOCc1nc2c(N)nc3ccccc3c2n1C[C@@H](C)O[P@@](=O)(N[C@@H](C)C(=O)OCc1ccccc1)Oc1ccccc1 (single isomer, unassigned) [Example 16A] | 5.83 µM |  | > 30 µM | 0.0354 µM |  |  | 165 | 
CCOCc1nc2c(N)nc3ccccc3c2n1C[C@@H](C)O[P@@](=O)(N[C@@H](C)C(=O)OC(C)(C)C)Oc1ccc(C)cc1 (single isomer, unassigned) [Example 17A] | > 30 µM |  | > 30 µM | 0.133 µM |  |  | >226 | 
CCOCc1nc2c(N)nc3ccccc3c2n1C[C@@H](C)O[P@@](=O)(N[C@@H](C)C(=O)OC(C)(C)C)Oc1ccc(OC)cc1 (single isomer, unassigned) [Example 18A] | > 30 µM |  | > 30 µM | 0.203 µM |  |  | >148 | 
CCOCc1nc2c(N)nc3ccccc3c2n1C[C@@H](C)O[P@@](=O)(N[C@@H](C)C(=O)OC(C)(C)C)Oc1ccc(Cl)cc1 (single isomer, unassigned) [Example 19A] | > 30 µM |  | > 30 µM | 0.0585 µM |  |  | >513 | 
CCOCc1nc2c(N)nc3ccccc3c2n1C[C@H](C)O [Example 1A] | 0.44 µM | 2.5 | > 30 µM | 1.08 µM |  |  |  | 
CCOCc1nc2c(N)nc3ccccc3c2n1CC(C)O (stereo not shown) [Example 1] | 0.666 µM | 2.4 | > 30 µM | 1.59 µM |  |  |  | 
